In publication PMC9237807 (Pharmacology Research & Perspectives, 2022):

Experiments:
human β1‐adrenoceptor [1] = molecular target: T1, human β1‐adrenoceptor (Homo sapiens, UniProt P08588); experiment: [3H]-DHA association kinetics; type: binding; details: human β1AR, 37°C
human β1‐adrenoceptors = experiment: Simulated association and dissociation of β-blockers from kinetic parameters; details: 30 × K d (β1), free ligand removed at 5 min
human β2‐adrenoceptors = experiment: as above; details: 30 × K d (β1), free ligand removed at 5 min
human β1‐adrenoceptor [2] = molecular target: T1, human β1‐adrenoceptor; experiment: [3H]-DHA competition kinetic binding assay; details: for koff / kon: human β1AR, CHO membranes, HBSS + 100 μM GTP, 37°C, ~3 nM [3H]-DHA
human β1‐adrenoceptor [3] = molecular target: T1, human β1‐adrenoceptor; experiment: [3H]-DHA equilibrium competition binding
[4] = global fit, 3 radioligand concentrations

T1 sequence (P08588 whole entry): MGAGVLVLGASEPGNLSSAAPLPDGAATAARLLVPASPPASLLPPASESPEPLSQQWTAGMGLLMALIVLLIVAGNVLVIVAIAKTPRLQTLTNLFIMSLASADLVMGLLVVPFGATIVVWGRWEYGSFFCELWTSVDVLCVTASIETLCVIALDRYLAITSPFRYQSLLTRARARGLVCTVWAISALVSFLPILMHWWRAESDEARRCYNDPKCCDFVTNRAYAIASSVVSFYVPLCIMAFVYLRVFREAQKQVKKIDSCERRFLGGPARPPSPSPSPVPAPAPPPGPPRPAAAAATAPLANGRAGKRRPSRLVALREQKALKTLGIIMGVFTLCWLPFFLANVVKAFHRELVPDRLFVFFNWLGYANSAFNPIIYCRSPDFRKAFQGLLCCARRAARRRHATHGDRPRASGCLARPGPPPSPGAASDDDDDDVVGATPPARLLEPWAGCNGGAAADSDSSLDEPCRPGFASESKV

Compound	Kd (human β1‐adrenoceptor [2])	koff (human β1‐adrenoceptor [2])	kon (human β1‐adrenoceptor [2])	Ki (human β1‐adrenoceptor [3])	further results
1‐[4,6‐propyl‐^3H]dihydroalprenolol [[^3H]‐DHA]	–	–	–	–	k off of radioligand (human β1‐adrenoceptor [1]; [4]): 0.00767 ± 0.0005 s⁻¹; k on of radioligand (human β1‐adrenoceptor [1]; [4]): 5.28 ± 0.48 × 10^8 M^−1 min^−1; Kd (human β1‐adrenoceptor [1]; read-out: K d of radioligand, from the kinetic fit): 0.94 nM
CC(C)NC[C@H](O)COc1ccc(CC(N)=O)cc1 [Atenolol, (S)‐(−) atenolol]	–	–	–	–	time until receptor binding is fully reversed (simulation) (human β1‐adrenoceptors; β1 and β2 adrenoceptors simulated): ≤ 5 min
CC(C)NCC(O)COc1ccc(COCCOC(C)C)cc1 (centres unmarked) [Bisoprolol, bisoprolol hemifumarate]	–	–	–	–	time for full dissociation from the β1‐adrenoceptor (simulation) (human β1‐adrenoceptors): approximately 40 min; time for full dissociation from the β2‐adrenoceptor (simulation) (human β2‐adrenoceptors): a matter of seconds

Further lines, with some results ahead:

Kd (human β1‐adrenoceptor [2])	koff (human β1‐adrenoceptor [2])	kon (human β1‐adrenoceptor [2])	Ki (human β1‐adrenoceptor [3])	Compound	further results
0.1 ± 0.0004 nM	0.00183 s⁻¹	1.85e+07 M⁻¹ s⁻¹	0.269 nM	CC(C)(Cc1c[nH]c2ccccc12)NCC(O)COc1ccccc1C#N (centres unmarked) [Bucindolol]	–
22.4 nM	0.00283 ± 0.0005 s⁻¹	7.68 ± 0.79 × 10^6 M^−1 min^−1	33.9 nM	CC(C)(C)NCC(O)COc1cccc2c1CC(O)C(O)C2 (centres unmarked) [Nadolol, nadolol]	–
